Experimental data as given in PubChem BioAssay AID330 (DTP/NCI, 2004).
Values joined by “and” are separate entries in the source; they are usually repeats but may differ in a detail not shown here. Equal values may be shown once. Toxic doses and inconclusive results are not listed. How the source made its calls: active means survival T/C of 150% or more; inactive means T/C below 125% in these data. Peptide text beside a SMILES is read from it. * marks the point of attachment. X13 = CC(C)CC(NN)C(=O)*

Test system: P388 leukemia ip, CD2F1 mice, survival T/C
Assay: NCI In Vivo Anticancer Drug Screen. Data for tumor model P388 Leukemia (intraperitoneal) in CD2F1 (CDF1) mice
Details: endpoint: median survival time, higher = longer survival
Procedure, shortened: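 Mice carrying the transplanted tumor received test compound or vehicle. Survival was recorded in each group, and the value is the treated-group measurement divided by that of the vehicle-treated control group.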

[1] = dose: 50.0 mg/kg/injection, schedule: Q01DX009 (ip), vehicle: saline with Tween-80
[2] = dose: 50.0 mg/kg/injection, schedule: Q01DX009 (ip), vehicle: saline

Measured: T/C

CC(=O)OC1CC(O)C23COC(O)C1(C)C2CC(O)C1(C)C3C(=O)C(O)C2(C)C(c3ccoc3)CC3OC321 (stereo not given)
inactive: dose: 0.13 mg/kg/injection, schedule: Q01DX009 (ip), vehicle: saline + alcohol 91 % of control | dose: 0.25 mg/kg/injection, schedule: Q01DX009 (ip), vehicle: saline + alcohol 93 % of control | dose: 0.5 mg/kg/injection, schedule: Q01DX009 (ip), vehicle: saline + alcohol 90 % of control | dose: 1.0 mg/kg/injection, schedule: Q01DX009 (ip), vehicle: saline + alcohol 94 % of control | dose: 1.25 mg/kg/injection, schedule: Q01DX009 (ip), vehicle: Klucel (hydroxypropylcellulose) (HPC) 104 % of control | dose: 2.5 mg/kg/injection, schedule: Q01DX009 (ip), vehicle: Klucel (hydroxypropylcellulose) (HPC) 95 % of control

Cc1ccc(-n2c3nc(=O)n(C)c(=O)c-3nc3ccccc32)cc1C
inactive: dose: 100.0 mg/kg/injection, schedule: Q01DX001 (ip), vehicle: Klucel (hydroxypropylcellulose) (HPC) 95 % of control | dose: 200.0 mg/kg/injection, schedule: Q01DX001 (ip), vehicle: Klucel (hydroxypropylcellulose) (HPC) 92 % of control

CCCCCCN1CCN(Cc2ccc(N(CC)CC)cc2)C(=O)C1=O
inactive: dose: 50.0 mg/kg/injection, schedule: Q01DX005 (ip), vehicle: Klucel (hydroxypropylcellulose) (HPC) 91 % of control | dose: 100.0 mg/kg/injection, schedule: Q01DX005 (ip), vehicle: Klucel (hydroxypropylcellulose) (HPC) 100 % of control | dose: 200.0 mg/kg/injection, schedule: Q01DX005 (ip), vehicle: Klucel (hydroxypropylcellulose) (HPC) 105 % of control

O=C1C=CC(=O)c2nc3ccccc3nc21
inactive: dose: 1.56 mg/kg/injection, schedule: Q01DX009 (ip), vehicle: distilled water + Tween-80 87 % of control | dose: 3.12 mg/kg/injection, schedule: Q01DX009 (ip), vehicle: distilled water + Tween-80 103 % of control | dose: 6.25 mg/kg/injection, schedule: Q01DX009 (ip), vehicle: distilled water + Tween-80 105 % of control and 106 % of control

CC(C)CC(NN)C(=O)NC(CCCN=C(N)N)C(=O)NC(CCCN=C(N)N)C(=O)NC(C)C(=O)NC(CO)C(=O)NC(C(=O)NC(C)C(=O)O)C(C)C (stereo not given) (X13-RRASVA-OH; configuration not given here)
inactive: dose: 4.5 mg/kg/injection, schedule: Q01DX009 (ip), vehicle: Klucel (hydroxypropylcellulose) (HPC) 101 % of control | dose: 9.0 mg/kg/injection, schedule: Q01DX009 (ip), vehicle: Klucel (hydroxypropylcellulose) (HPC) 94 % of control | dose: 18.0 mg/kg/injection, schedule: Q01DX009 (ip), vehicle: Klucel (hydroxypropylcellulose) (HPC) 98 % of control | dose: 36.0 mg/kg/injection, schedule: Q01DX009 (ip), vehicle: Klucel (hydroxypropylcellulose) (HPC) 96 % of control

CCCN(CCC)CC1CN(/N=C/c2ccc([N+](=O)[O-])o2)C(=O)O1 (stereo not given)
inactive: dose: 50.0 mg/kg/injection, schedule: Q01DX005 (ip), vehicle: saline 108 % of control | dose: 100.0 mg/kg/injection, schedule: Q01DX005 (ip), vehicle: saline 100 % of control | dose: 200.0 mg/kg/injection, schedule: Q01DX005 (ip), vehicle: saline 108 % of control

ClC1=C(Cl)C(Cl)=C(Cl)C1=Cc1ccccc1
inactive: dose: 6.25 mg/kg/injection, schedule: Q01DX009 (ip), vehicle: saline with Tween-80 108 % of control | dose: 12.5 mg/kg/injection, schedule: Q01DX009 (ip), vehicle: saline with Tween-80 118 % of control | dose: 25.0 mg/kg/injection, schedule: Q01DX009 (ip), vehicle: saline with Tween-80 117 % of control | [1] 123 % of control

CCOC(=O)Cc1ccnc(C)c1
inactive: [1] 90 % of control | dose: 100.0 mg/kg/injection, schedule: Q01DX009 (ip), vehicle: saline with Tween-80 90 % of control | dose: 200.0 mg/kg/injection, schedule: Q01DX009 (ip), vehicle: saline with Tween-80 100 % of control

CC(=O)OC1CCC2(C)C(=CCC3C2CCC2(C)C(OC(C)=O)/C(=C/C(=O)O)CC32)C1 (stereo not given)
inactive: dose: 25.0 mg/kg/injection, schedule: Q01DX009 (ip), vehicle: Klucel (hydroxypropylcellulose) (HPC) 94 % of control | dose: 50.0 mg/kg/injection, schedule: Q01DX009 (ip), vehicle: Klucel (hydroxypropylcellulose) (HPC) 97 % of control | dose: 100.0 mg/kg/injection, schedule: Q01DX009 (ip), vehicle: Klucel (hydroxypropylcellulose) (HPC) 97 % of control | dose: 200.0 mg/kg/injection, schedule: Q01DX009 (ip), vehicle: Klucel (hydroxypropylcellulose) (HPC) 90 % of control

O=C1C=C(Nc2ccccc2)CCC1
inactive: dose: 100.0 mg/kg/injection, schedule: Q04DX003 (ip), vehicle: saline with Tween-80 100 % of control | dose: 200.0 mg/kg/injection, schedule: Q04DX003 (ip), vehicle: saline with Tween-80 105 % of control | dose: 400.0 mg/kg/injection, schedule: Q04DX003 (ip), vehicle: saline with Tween-80 105 % of control

CN1CCC2=C(C1)C(c1ccccc1)c1ccccc12 (stereo not given)
inactive: dose: 33.0 mg/kg/injection, schedule: Q01DX009 (ip), vehicle: saline 107 % of control | [2] 104 % of control | dose: 75.0 mg/kg/injection, schedule: Q01DX009 (ip), vehicle: saline 107 % of control

NC(N)=NCCCCCC(=O)O
inactive: [2] 100 % of control | dose: 100.0 mg/kg/injection, schedule: Q01DX009 (ip), vehicle: saline 109 % of control
